Measured values reported in article PMC7312375, “A Novel, Pan-PDE Inhibitor Exerts Anti-Fibrotic Effects in Human Lung Fibroblasts via Inhibition of TGF-β Signaling and Activation of cAMP/PKA Signaling” (International Journal of Molecular Sciences, 2020).

Columns and labels:
PDE1C = molecular target: T1, PDE1C (Homo sapiens, UniProt Q14123); assay: PDE-Glo assay, human recombinant PDE1C; type: biochemical; conditions: read-out: PDE-IC50 1C
T1 construct: purchased SignalChem
Method: (§1) Inhibitory activities of the investigated compounds against various subtypes of human recombinant (hr)PDEs, namely PDE1A, PDE1B, PDE1C, PDE3A, PDE3B, PDE4A, PDE4B, PDE4D, PDE7A, and PDE8A were assessed using a PDE-Glo^TM Assay Kit (Promega, Madison, WI, USA) according to the protocol provided by the manufacturer. Briefly, appropriate amounts of each enzyme (SignalChem, Richmond, B.C., Canada), diluted with PDE-Glo reaction buffer, were distributed on a 384-well plate (Thermo Scientific, Waltham, MA, USA). The investigated compounds were dissolved in DMSO, diluted with the same vehicle, and mixed with the reaction buffer at a v/v ratio of 1:5. Thereafter, 1 µL of these mixtures and 2.5 µL of the cAMP solution as a substrate were added. The final cAMP concentration was 0.05 µM. The samples were incubated for 10 min at 30 °C. Then, 2.5 µL of termination buffer and 2.5 µL of PDE-Glo detection solution were added to each well and incubated for 20 min. Finally, 10 µL of PDE-Glo kinase reagent was added, and luminescence was measured using the POLARstar Omega plate reader (BMG LABTECH, Ortenberg, Germany). Each sample was prepared in quadruplicate. The relative activities (A, %) of all samples were calculated from the following equation: A = [(LUsample − LUblank)/(LUcontrol − LUblank)]·100%; where LUcontrol is the luminescence of a control sample in the absence of a PDE inhibitor, LUsample is a luminescence of an investigated sample in the presence of an inhibitor, and LUblank is a luminescence of a sample in the absence of enzyme (activity = 0). IC50 values were estimated using non-linear regression.

PDE4A = molecular target: T2, PDE4A (Homo sapiens, UniProt P27815); assay: PDE-Glo assay, human recombinant PDE4A; type: biochemical; conditions: read-out: PDE-IC50 4A
T2 construct: purchased SignalChem
T2 sequence (P27815 whole entry): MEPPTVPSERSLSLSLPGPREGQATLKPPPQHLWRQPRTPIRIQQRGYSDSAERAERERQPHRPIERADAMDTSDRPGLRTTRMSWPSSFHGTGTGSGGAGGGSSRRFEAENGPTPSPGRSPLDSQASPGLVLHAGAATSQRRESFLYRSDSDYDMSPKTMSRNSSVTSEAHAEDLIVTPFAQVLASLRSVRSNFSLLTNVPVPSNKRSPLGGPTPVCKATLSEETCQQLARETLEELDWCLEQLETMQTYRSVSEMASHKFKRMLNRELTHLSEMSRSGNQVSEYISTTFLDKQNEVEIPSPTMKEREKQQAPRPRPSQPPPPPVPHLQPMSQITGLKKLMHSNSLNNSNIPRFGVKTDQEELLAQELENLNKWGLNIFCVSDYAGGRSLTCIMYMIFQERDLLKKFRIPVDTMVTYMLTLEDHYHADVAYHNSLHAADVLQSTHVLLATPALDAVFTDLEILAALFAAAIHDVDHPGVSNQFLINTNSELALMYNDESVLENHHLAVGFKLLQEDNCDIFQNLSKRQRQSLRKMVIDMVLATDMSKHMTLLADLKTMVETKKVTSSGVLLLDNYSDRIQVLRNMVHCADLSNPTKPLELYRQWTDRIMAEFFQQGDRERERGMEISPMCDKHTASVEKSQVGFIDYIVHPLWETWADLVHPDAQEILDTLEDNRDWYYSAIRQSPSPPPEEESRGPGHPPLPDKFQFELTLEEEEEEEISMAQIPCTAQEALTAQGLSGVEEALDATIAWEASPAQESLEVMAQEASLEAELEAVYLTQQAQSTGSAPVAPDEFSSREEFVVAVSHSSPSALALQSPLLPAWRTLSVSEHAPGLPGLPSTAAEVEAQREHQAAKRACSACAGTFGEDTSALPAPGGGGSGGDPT
Method: as §1

MRC-5 cells [1] = assay: FBS-induced MRC-5 proliferation, alamarBlue assay; type: cell-based, human; conditions: for inhibition at 50 µM: Homo sapiens, MRC5, read-out: inhibition of FBS-induced MRC-5 proliferation rate; for MRC-5 proliferation [% of control]: 48 h with FBS
Method: The normal human lung fibroblast cell line—MRC-5 (ATCC® CCL-171™, Manassas, VA, USA)—was used in the study. Cells were cultured in Eagle’s Minimum Essential Medium (EMEM, ATCC® 30-2003™, Manassas, VA, USA) supplemented with 10% (v/v) fetal bovine serum (FBS; Gibco, Thermo Fisher Scientific, Waltham, MA, USA) and antibiotics mixture (penicillin, streptomycin, amphotericin B; Gibco, Thermo Fisher Scientific, Waltham, MA, USA) (standard culture medium) in standard culture conditions (5% CO2, 37 °C, 95% humidity). Unless otherwise specified, for the experiments, cells were seeded at a final density (5 × 10^3/cm^2) in standard culture medium for 24 h and then cultured in EMEM at reduced serum content (0.5%; v/v) for additional 24 h. TGF-β1 (BD Biosciences, San Jose, CA, USA) was administered at 5 ng/mL concentration in all experiments.
MRC-5 cell viability was evaluated using CytoTox-ONE™ Homogeneous Membrane Integrity Assay (Promega Corporation, Madison, WI, USA) according to the manufacturer’s protocol. The average fluorescence intensity with an excitation wavelength of 560 nm and an emission wavelength of 590 nm was measured using a microplate reader (SpectraMax® iD3, Molecular Devices, San Jose, CA, USA). Experiments were run three times in duplicates. MRC-5 proliferation was determined using the alamarBlue® assay. Cells were seeded for 24 h in standard culture medium, then serum-starved for an additional three days. Evaluated compounds (1-50 µM) were added 1 h prior FBS (10%, v/v) for an additional 48 h. After incubation, the alamarBlue® reagent (Invitrogen, Life Technologies, Carlsbad, CA, USA), dissolved in Hank’s Balanced Salt Solution (10% v/v; Gibco, Thermo Fisher Scientific, Waltham, MA, USA), was added for 30 min. After the observed color change, the supernatant was transferred to 96-well plates, and the absorbance was measured at 570 and 600 nm. The percent difference in reduction between treated and control cells was calculated according to the manufacturer’s protocol. The experiments were run three times in duplicates.

MRC-5 cells [2] = assay: cAMP ELISA; type: cell-based, human; conditions: 10 µM, 30 min
Method: MRC-5 cells were seeded in standard culture medium for 24 h and then serum-starved for 2 h in HBSS. The study compounds (10 µM) were added to the MRC-5 cultures and after 30 min of incubation, the intracellular cAMP level in cell lysates was measured using a colorimetric cAMP ELISA Kit according to the manufacturer’s protocol (Cell Biolabs, INC., San Diego, CA, USA). Obtained results were normalized to total protein content in each sample. The experiments were run two times in duplicates.

[3] = tested on: TGF-β1-induced MRC-5 cells; assay: Immunofluorescence, nuclear localization of p-CREB; type: cell-based, human; conditions: 10 µM
Method: For immunocytochemical labeling, MRC-5 cells were seeded on glass coverslips. Study compounds (10 µM) were added 1 h before TGF-β1 treatment, and analysis was performed after 1 h (p-Smad-2 and p-CREB detection) or 48 h (α-SMA detection) of incubation. Cells were fixed in methanol or 4% formaldehyde solution, permeabilized in 0.2% or 0.1% Triton X-100 solution (for p-Smad-2 and p-CREB or α-SMA, respectively). After incubation in blocking solution the following primary antibodies: rabbit polyclonal, anti-phospho-Smad-2 (Ser465, Ser467) antibody (#44-244G, Thermo Fisher Scientific, Waltham, MA, USA); rabbit polyclonal, anti-phospho-CREB1 (Ser133) antibody (#orb213775, Biorbyt, Cambridge, United Kingdom); mouse monoclonal, anti-α-SMA antibody (#MA5-11547, Thermo Fisher Scientific, Waltham, MA, USA) and secondary antibodies: goat anti-rabbit Alexa Fluor 546 conjugated antibody and goat anti-mouse Alexa Fluor 488 conjugated antibody (#A-11010 and #A-11001, respectively, Invitrogen, Carlsbad, CA, USA) were used. Nuclei were counterstained with Hoechst 33342 dye (Thermo Fisher Scientific, Waltham, MA, USA). Slides were mounted in ProLong™ Glass Antifade Mountant (Invitrogen, Carlsbad, CA, USA) and analyzed using Leica DMiL LED Fluo microscope (for α-SMA and p-CREB visualization, 40× objective) or Leica DMi8 with Thunder Imaging System (for p-Smad-2 visualization, 40× objective), all equipped with LAS-X Software (Leica Microsystems GmbH, Wetzlar, Germany). Experiments were run four times using five randomly selected fields of view, at the same fluorescent time exposure and in a blind-folded manner.

T1 sequence (Q14123 whole entry): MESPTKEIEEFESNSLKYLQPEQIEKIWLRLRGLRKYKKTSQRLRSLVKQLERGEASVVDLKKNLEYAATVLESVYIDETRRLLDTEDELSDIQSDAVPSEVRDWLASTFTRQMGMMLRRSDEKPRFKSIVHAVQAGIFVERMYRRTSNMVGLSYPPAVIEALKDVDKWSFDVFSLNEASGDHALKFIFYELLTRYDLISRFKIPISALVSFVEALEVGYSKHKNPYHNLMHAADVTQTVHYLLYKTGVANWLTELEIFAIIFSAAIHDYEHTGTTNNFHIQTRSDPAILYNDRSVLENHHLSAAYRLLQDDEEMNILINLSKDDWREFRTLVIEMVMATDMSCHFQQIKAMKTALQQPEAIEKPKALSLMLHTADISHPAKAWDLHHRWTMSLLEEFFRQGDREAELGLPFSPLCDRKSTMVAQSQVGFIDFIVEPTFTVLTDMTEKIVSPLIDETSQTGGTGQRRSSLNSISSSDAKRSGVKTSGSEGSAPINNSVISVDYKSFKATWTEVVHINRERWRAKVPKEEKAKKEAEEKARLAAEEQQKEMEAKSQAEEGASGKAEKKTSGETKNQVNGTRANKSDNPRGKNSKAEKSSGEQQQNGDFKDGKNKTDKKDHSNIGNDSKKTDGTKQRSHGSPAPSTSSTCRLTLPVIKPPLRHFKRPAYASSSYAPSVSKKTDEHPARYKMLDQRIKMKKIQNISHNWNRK

IC50 (PDE1C) [µM]	IC50 (PDE4A) [µM]	Compound	inhibition at 50 µM (MRC-5 cells [1]; 50 µM) [%]	MRC-5 proliferation [% of control] (MRC-5 cells [1]; Table S1 (Figure 2B), 1 µM)	MRC-5 proliferation [% of control] (MRC-5 cells [1]; Table S1 (Figure 2B), 5 µM)	MRC-5 proliferation [% of control] (MRC-5 cells [1]; Table S1 (Figure 2B), 10 µM)	MRC-5 proliferation [% of control] (MRC-5 cells [1]; Table S1 (Figure 2B), 15 µM)	MRC-5 proliferation [% of control] (MRC-5 cells [1]; Table S1 (Figure 2B), 20 µM)	MRC-5 proliferation [% of control] (MRC-5 cells [1]; Table S1 (Figure 2B), 50 µM)	MRC-5 proliferation [% of control] (MRC-5 cells [1]; Table S2 (Figure 5B), 1 µM)	MRC-5 proliferation [% of control] (MRC-5 cells [1]; Table S2 (Figure 5B), 5 µM)	MRC-5 proliferation [% of control] (MRC-5 cells [1]; Table S2 (Figure 5B), 10 µM)	MRC-5 proliferation [% of control] (MRC-5 cells [1]; Table S2 (Figure 5B), 50 µM)	increase in cAMP level compared to control (MRC-5 cells [2]) [fold]	cAMP level (MRC-5 cells [2]; control 508.87)	elevation of fraction of MRC-5 cells with nuclear p-CREB localization [3]
89.2	4.75	Cn1c(=O)c2c(nc(NCc3ccco3)n2CCCC(=O)NN=Cc2ccc(O)cc2O)n(C)c1=O [Compound 832, N′-(2,4-dihydroxybenzylidene)-4-(8-((furan-2-ylmethyl)amino)-1,3-dimethyl-2,6-dioxo-1,2,3,6-tetrahydro-7H-purin-7-yl)butanehydrazide]	39	93 % of control	87 % of control	85 % of control	82 % of control	83 % of control	61 % of control					2.16		only a slight increase
172	58.1	COc1nc2c(c(=O)n(C)c(=O)n2C)n1CC(=O)Nc1ccc(C(C)(C)C)cc1 [Compound 869, N-(4-(tert-butyl)phenyl)-2-(8-methoxy-1,3-dimethyl-2,6-dioxo-1,2,3,6-tetrahydro-7H-purin-7-yl)acetamide]	25	91 % of control	89 % of control	90 % of control	88 % of control	87 % of control	75 % of control							only a slight increase
12.5	16.4	CC(C)Cn1c(=O)n(C)c(=O)c2[nH]cnc21 [IBMX, 3-isobutyl-1-methyl-3,7-dihydro-1H-purine-2,6-dione, reference compound]	10	102 % of control	99 % of control	98 % of control	100 % of control	95 % of control	90 % of control					2.53		only a slight increase

Compound	IC50 (PDE1C) [µM]	IC50 (PDE4A) [µM]	inhibition at 50 µM (MRC-5 cells [1]; 50 µM) [%]	MRC-5 proliferation [% of control] (MRC-5 cells [1]; Table S1 (Figure 2B), 1 µM)	MRC-5 proliferation [% of control] (MRC-5 cells [1]; Table S1 (Figure 2B), 5 µM)	MRC-5 proliferation [% of control] (MRC-5 cells [1]; Table S1 (Figure 2B), 10 µM)	MRC-5 proliferation [% of control] (MRC-5 cells [1]; Table S1 (Figure 2B), 15 µM)	MRC-5 proliferation [% of control] (MRC-5 cells [1]; Table S1 (Figure 2B), 20 µM)	MRC-5 proliferation [% of control] (MRC-5 cells [1]; Table S1 (Figure 2B), 50 µM)	MRC-5 proliferation [% of control] (MRC-5 cells [1]; Table S2 (Figure 5B), 1 µM)	MRC-5 proliferation [% of control] (MRC-5 cells [1]; Table S2 (Figure 5B), 5 µM)	MRC-5 proliferation [% of control] (MRC-5 cells [1]; Table S2 (Figure 5B), 10 µM)	MRC-5 proliferation [% of control] (MRC-5 cells [1]; Table S2 (Figure 5B), 50 µM)	increase in cAMP level compared to control (MRC-5 cells [2]) [fold]	cAMP level (MRC-5 cells [2]; control 508.87)	elevation of fraction of MRC-5 cells with nuclear p-CREB localization [3]
CCCCOc1nc2c(c(=O)n(C)c(=O)n2C)n1CCCC(=O)Nc1cc(C(C)(C)C)ccc1O [Compound 145, 4-(8-butoxy-1,3-dimethyl-2,6-dioxo-1,2,3,6-tetrahydro-7H-purin-7-yl)-N-(5-(tert-butyl)-2-hydroxyphenyl)butanamide]	48.5	1.59	58	104 % of control	91 % of control	84 % of control	74 % of control	72 % of control	42 % of control	93 % of control	84 % of control	83 % of control	46 % of control	4.5	2262.07 fmol/mL/mg of protein	70%
